Ki data for 14 compounds are collected here from ChEMBL document CHEMBL2331088, “An α-carbonic anhydrase from the thermophilic bacterium Sulphurihydrogenibium azorense is the fastest enzyme known for the CO2 hydration reaction” (Bioorg Med Chem, 2013).

The nature of assay [1]: Inhibition of Sulfurihydrogenibium yellowstonense YO3AOP1 carbonic anhydrase preincubated for 15 mins by CO2 hydration stopped-flow assay.
Assay [2] is described as follows: Inhibition of Sulfurihydrogenibium azorense carbonic anhydrase preincubated for 15 mins by CO2 hydration stopped-flow assay.
The nature of assay [3]: Inhibition of Helicobacter pylori alpha-carbonic anhydrase preincubated for 15 mins by CO2 hydration stopped-flow assay.

In general, Ki refers to the equilibrium dissociation constant of an inhibitor or competing ligand from its target. The low end stands for a stronger hold on the target, the high end for a looser hold on the target. For `O=S(=O)(O)O` [SULFURIC ACID], the Ki in assay [1] amounted to 820 µM; in assay [2], 10000 µM; in assay [3], 820 µM.

For the compound `I` [IODIDE], the Ki turned out to be 860 µM in assay [1], 870 µM in assay [2] and 6050 µM in assay [3].

With `O=C(O)O` [BICARBONATE], the Ki stood at 33200 µM in assay [1] and 15700 µM in assay [2].

For `N=C=[Se]` [ISOSELENOCYANATE], the Ki in assay [1] was 70 µM; in assay [2], 490 µM; in assay [3], 730 µM.

In the case of `O=S(O)O` [SULFUROUS ACID], the figures for the Ki in assay [1], in assay [2] and in assay [3] were 21100 µM, 950 µM and 990 µM, respectively.

As for `CCN(CC)C(=S)S` [DITIOCARB], the Ki was 4 µM in assay [1], 3.1 µM in assay [2] and 5 µM in assay [3].

As for `Br` [BROMIDE], the Ki turned out to be 49000 µM in assay [1], 940 µM in assay [2] and 2410 µM in assay [3].

With `S` [HYDROGEN SULFIDE], the figures for the Ki in assay [1] and in assay [2] were 580 µM and 380 µM, respectively.

Consider `Cl` [HYDROCHLORIC ACID], for which the Ki in assay [1] stood at 8300 µM; in assay [2] it was 850 µM; in assay [3] it was 2700 µM.

As to `N=C=S` [ISOTHIOCYANATE], the figures for the Ki in assay [1], in assay [2] and in assay [3] were 710 µM, 580 µM and 4100 µM, respectively.

With `F` [FLUORIDE ION], the values for the Ki in assay [1], in assay [2] and in assay [3] were 417000 µM, 980 µM and 4080 µM, respectively.

For `NS(=O)(=O)O` [SULFAMATE], the Ki in assay [1] was 42 µM; in assay [2], 4.8 µM; in assay [3] it was 80 µM.

`S=C(S)S` [CARBONOTRITHIOIC ACID]: the inhibition constant (Ki) in assay [1] amounted to 60 µM; in assay [2], 39 µM; in assay [3] it was 380 µM.

In the case of `CC(=O)Nc1nnc(S(N)(=O)=O)s1` [ACETAZOLAMIDE], the Ki in assay [1] was 0.004 µM; in assay [2], 0.0009 µM.
